Measurements taken from PubChem BioAssay (NCI).
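Assay format: 96-well plates, 48-hour exposure. At the TGI there is no net growth.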

Legend:
Test in all cases: inhibition of tumour cell growth, NCI panel, 48 h
NCI-H226 lung = test system: NCI-H226 lung
MDA-MB-231 breast = test system: MDA-MB-231 breast
SNB-19 CNS = test system: SNB-19 CNS
T-47D breast = test system: T-47D breast
SK-MEL-28 melanoma = test system: SK-MEL-28 melanoma
OVCAR-4 ovarian = test system: OVCAR-4 ovarian
NCI/ADR-RES ovarian = test system: NCI/ADR-RES ovarian
EKVX NSCLC = test system: EKVX NSCLC
UACC-257 melanoma = test system: UACC-257 melanoma
MCF7 breast = test system: MCF7 breast
RPMI-8226 leukemia = test system: RPMI-8226 leukemia
SW-620 colon = test system: SW-620 colon
DU-145 prostate = test system: DU-145 prostate
LOX IMVI melanoma = test system: LOX IMVI melanoma
OVCAR-5 ovarian = test system: OVCAR-5 ovarian
NCI-H460 lung = test system: NCI-H460 lung
CCRF-CEM leukemia = test system: CCRF-CEM leukemia
U251 CNS = test system: U251 CNS
SK-MEL-5 melanoma = test system: SK-MEL-5 melanoma
M14 melanoma = test system: M14 melanoma
SF-295 CNS = test system: SF-295 CNS
MOLT-4 leukemia = test system: MOLT-4 leukemia
OVCAR-3 ovarian = test system: OVCAR-3 ovarian
HOP-62 NSCLC = test system: HOP-62 NSCLC
UO-31 renal = test system: UO-31 renal
UACC-62 melanoma = test system: UACC-62 melanoma
KM12 colon = test system: KM12 colon
CAKI-1 renal = test system: CAKI-1 renal
HCC-2998 colon = test system: HCC-2998 colon
COLO 205 colon = test system: COLO 205 colon
MDA-N = test system: MDA-N
SK-OV-3 ovarian = test system: SK-OV-3 ovarian
K-562 leukemia = test system: K-562 leukemia
NCI-H23 lung = test system: NCI-H23 lung
HOP-92 NSCLC = test system: HOP-92 NSCLC
SK-MEL-2 melanoma = test system: SK-MEL-2 melanoma
HCT-116 colon = test system: HCT-116 colon
ACHN renal = test system: ACHN renal
PC-3 prostate = test system: PC-3 prostate
A498 renal = test system: A498 renal
SNB-75 CNS = test system: SNB-75 CNS
786-0 renal = test system: 786-0 renal
HCT-15 colon = test system: HCT-15 colon
SR leukemia = test system: SR leukemia
SF-268 CNS = test system: SF-268 CNS
RXF 393 renal = test system: RXF 393 renal
A549 NSCLC = test system: A549 NSCLC
HL-60(TB) leukemia = test system: HL-60(TB) leukemia
OVCAR-8 ovarian = test system: OVCAR-8 ovarian
SN12C renal = test system: SN12C renal
MDA-MB-435 = test system: MDA-MB-435
BT-549 breast = test system: BT-549 breast
HT29 colon = test system: HT29 colon
MALME-3M melanoma = test system: MALME-3M melanoma
HS 578T breast = test system: HS 578T breast
SF-539 CNS = test system: SF-539 CNS
TK-10 renal = test system: TK-10 renal
NCI-H522 lung = test system: NCI-H522 lung
IGROV1 ovarian = test system: IGROV1 ovarian

Structure (SMILES): CN(C(=O)C1=CCC2(CC1)OCCO2)c1ccccc1OS(=O)(=O)C(F)(F)F
- TGI (NCI-H226 lung): 85.4 µM
- TGI (MDA-MB-231 breast): > 100 µM
- TGI (SNB-19 CNS): > 100 µM
- TGI (T-47D breast): > 100 µM
- TGI (SK-MEL-28 melanoma): > 100 µM
- TGI (OVCAR-4 ovarian): > 100 µM
- TGI (NCI/ADR-RES ovarian): > 100 µM
- TGI (EKVX NSCLC): > 100 µM
- TGI (UACC-257 melanoma): > 100 µM
- TGI (MCF7 breast): > 100 µM
- TGI (RPMI-8226 leukemia): > 100 µM
- TGI (SW-620 colon): > 100 µM
- TGI (DU-145 prostate): > 100 µM
- TGI (LOX IMVI melanoma): > 100 µM
- TGI (OVCAR-5 ovarian): > 100 µM
- TGI (NCI-H460 lung): > 100 µM
- TGI (CCRF-CEM leukemia): > 100 µM
- TGI (U251 CNS): > 100 µM
- TGI (SK-MEL-5 melanoma): > 100 µM
- TGI (M14 melanoma): > 100 µM
- TGI (SF-295 CNS): > 100 µM
- TGI (MOLT-4 leukemia): > 100 µM
- TGI (OVCAR-3 ovarian): > 100 µM
- TGI (HOP-62 NSCLC): > 100 µM
- TGI (UO-31 renal): > 100 µM
- TGI (UACC-62 melanoma): > 100 µM
- TGI (KM12 colon): > 100 µM
- TGI (CAKI-1 renal): > 100 µM
- TGI (HCC-2998 colon): > 100 µM
- TGI (COLO 205 colon): > 100 µM
- TGI (MDA-N): > 100 µM
- TGI (SK-OV-3 ovarian): > 100 µM
- TGI (K-562 leukemia): > 100 µM
- TGI (NCI-H23 lung): > 100 µM
- TGI (HOP-92 NSCLC): > 100 µM
- TGI (SK-MEL-2 melanoma): > 100 µM
- TGI (HCT-116 colon): > 100 µM
- TGI (ACHN renal): > 100 µM
- TGI (PC-3 prostate): > 100 µM
- TGI (A498 renal): > 100 µM
- TGI (SNB-75 CNS): 79.5 µM
- TGI (786-0 renal): > 100 µM
- TGI (HCT-15 colon): > 100 µM
- TGI (SR leukemia): > 100 µM
- TGI (SF-268 CNS): 97.6 µM
- TGI (RXF 393 renal): > 100 µM
- TGI (A549 NSCLC): > 100 µM
- TGI (HL-60(TB) leukemia): > 100 µM
- TGI (OVCAR-8 ovarian): > 100 µM
- TGI (SN12C renal): > 100 µM
- TGI (MDA-MB-435): > 100 µM

Structure (SMILES): CC(C)C(=O)[C@@]1(C)SC[C@H]2CCN=C21
- TGI (NCI-H226 lung): > 100 µM
- TGI (SNB-19 CNS): > 100 µM
- TGI (SK-MEL-28 melanoma): > 100 µM
- TGI (OVCAR-4 ovarian): > 100 µM
- TGI (BT-549 breast): > 100 µM
- TGI (NCI/ADR-RES ovarian): > 100 µM
- TGI (EKVX NSCLC): > 100 µM
- TGI (HT29 colon): > 100 µM
- TGI (UACC-257 melanoma): > 100 µM
- TGI (MCF7 breast): > 100 µM
- TGI (RPMI-8226 leukemia): > 100 µM
- TGI (SW-620 colon): > 100 µM
- TGI (DU-145 prostate): > 100 µM
- TGI (LOX IMVI melanoma): > 100 µM
- TGI (OVCAR-5 ovarian): > 100 µM
- TGI (NCI-H460 lung): > 100 µM
- TGI (CCRF-CEM leukemia): > 100 µM
- TGI (MALME-3M melanoma): > 100 µM
- TGI (SK-MEL-5 melanoma): > 100 µM
- TGI (M14 melanoma): > 100 µM
- TGI (SF-295 CNS): > 100 µM
- TGI (MOLT-4 leukemia): > 100 µM
- TGI (OVCAR-3 ovarian): > 100 µM
- TGI (UO-31 renal): > 100 µM
- TGI (UACC-62 melanoma): > 100 µM
- TGI (KM12 colon): > 100 µM
- TGI (CAKI-1 renal): > 100 µM
- TGI (HCC-2998 colon): > 100 µM
- TGI (COLO 205 colon): > 100 µM
- TGI (MDA-N): > 100 µM
- TGI (HS 578T breast): > 100 µM
- TGI (SK-OV-3 ovarian): > 100 µM
- TGI (K-562 leukemia): > 100 µM
- TGI (SF-539 CNS): > 100 µM
- TGI (NCI-H23 lung): > 100 µM
- TGI (HOP-92 NSCLC): 75 µM
- TGI (HCT-116 colon): > 100 µM
- TGI (ACHN renal): > 100 µM
- TGI (TK-10 renal): > 100 µM
- TGI (A498 renal): > 100 µM
- TGI (786-0 renal): > 100 µM
- TGI (HCT-15 colon): > 100 µM
- TGI (SR leukemia): > 100 µM
- TGI (RXF 393 renal): > 100 µM
- TGI (A549 NSCLC): > 100 µM
- TGI (HL-60(TB) leukemia): > 100 µM
- TGI (NCI-H522 lung): > 100 µM
- TGI (IGROV1 ovarian): > 100 µM
- TGI (OVCAR-8 ovarian): > 100 µM
- TGI (SN12C renal): > 100 µM
- TGI (MDA-MB-435): > 100 µM
